From patent US11382889B2, “NRF2 activators for the prevention and/or treatment of axonal degeneration” (priority 2018, dated 2022)
Structures can show the parent of a compound that is named as a salt.

What was measured:
Assay type in all cases: in vivo
[1] = test system: Abcd1−/Abcd2−/− (DKO) mice; test: Bar cross and treadmill tests in Abcd1−/Abcd2−/− (DKO) mice; conditions: 18 months of age, end of treatment, DMF 100 mg/kg in chow for 6 months
Description: (§1) a-x) Immunohistological analysis of axonal pathologies performed in 18-month-old WT, Abcd1^−/Abcd2^−/− (DKO) and Abcd1^−/Abcd2^−/− mice treated with DMF (DKO+DMF) (n=5 per genotype and condition). Spinal cord immunohistological sections were processed for (a-c) Iba1, (d-f) GFAP, (g-i) Synaptophysin, (j-l) APP, (m-o) Sudan black, (p-r) 8-oxo-dG, (s-u) CYT C and (v-x) SMI-32 immunostaining. Representative images for (a, d, g, j, m, p, s, v) WT, (b, e, h, k, n, q, t, w) DKO, and (c, f, i, l, o, r, u, x) DKO+DMF are shown. Scale bars=25 μm (a-r) and […] (s-x). y) Quantification of synaptophysin and APP accumulations in spinal cord immunohistological sections of WT (n=5), DKO (n=5) and DKO+DMF (n=5) mice. z) Bar-cross and treadmill tests performed on 18-month-old WT (n=14), Abcd1^−//Abcd2^−/− (DKO) (n=16) and Abcd1^−//Abcd2^−/− mice treated with DMF (DKO+DMF) (n=14). […] Values are expressed as mean±SD (*p<0.05, **p<0.01, ***p<0.001 after one-way ANOVA test followed by Tukey's post hoc test; p<0.05, p<0.001 after non-parametric Kruskal-Wallis' test).
To address the therapeutic effect of DMF, we assessed the clinical signs of AMN in Abcd1^−/Abcd2^−/− (DKO) mice, which display increased VLCFA accumulation in the spinal cord, higher levels of oxidative damage to proteins, and a more severe AMN-like pathology with an earlier onset at 12 months of age. […]

Abcd1− mice spinal cord = test: Inflammatory profile (quantitative RT-PCR) and oxidative lesions (GC/MS) in Abcd1− mice spinal cord; conditions: 12 months of age
Experimental: a) Th1 (Nfκb2, Il1β, Il6, Tnfα, Tnfrsf1a, Ccl5, Cxcl9, Cxcl10, Ccr6) and b) Th2 (Fizz1, Chil3, Cxcl12, Il10, Igf1, Mif, Tgfβ1) inflammatory profile in WT (n=8), Abcd1^− (n=8) and Abcd1^−+DMF (n=8) mice spinal cord at 12 months of age. Cytokines, chemokines and other inflammation-related genes expression was measured by quantitative RT-PCR. Gene expression levels were normalized relative to Rplp0. Quantification is depicted as fold change to WT mice. c) Oxidative lesions to lipids and proteins in WT (n=5), Abcd1^− (n=5) and Abcd1^−+DMF (n=5) mice spinal cord at 12 months of age. AASA, CEL, CML and MDAL levels were measured by GC/MS. Quantification is represented as fold change to WT mice. Data are shown as mean±SD (*p<0.05, **p<0.01, ***p<0.001 after one-way ANOVA test followed by Tukey's post-hoc test; p<0.05, p<0.01, p<0.001 after non-parametric Kruskal-Wallis' test).
Cages contained 3 to 5 animals.
We used two X-ALD mouse models in this study. We characterized the biochemical signs of adult X-ALD in Abcd1^− mice at 12 months of age. These mice show biochemical signs of pathology, including oxidative stress and energetic homeostasis impairment, before the first clinical signs of AMN-like pathology (axonopathy and locomotor impairment) appear at 20 months.
(§2) For biochemical analysis, we killed the mice and stored the tissues at −80° C. after snap-freezing them in liquid nitrogen. For histological analysis, spinal cord was harvested from 18-month-old mice after perfusing them with 4% paraformaldehyde (PFA; Sigma-Aldrich, Ref. 441244) in 0.1 M phosphate buffer pH 7.4. Histological and behavioural tests were performed in a blind way with respect to the animal's genotype and for the treatment administered.
In Abcd1^− mouse, a functional genomics assay detected NFκB-mediated inflammatory pathway activation in Abcd1^− mouse spinal cord, and increased expression of several proinflammatory genes. Regarding AMN patients, we have recently described a general dysregulation of inflammatory pathways in peripheral blood mononuclear cells (PBMCs) and plasma from AMN patients. As DMF is a classical immunomodulatory drug, we examined its effects on mRNA expression of several inflammation-related genes in Abcd1^− mice spinal cord.
Nuclear factor kappa B subunit 2 (Nfκb2), which belongs to the non-canonical NFκB pathway, as well as the majority of M1 markers were increased in Abcd1^− mouse spinal cord, including interleukin 1 beta (Il1β), tumour necrosis factor alpha (Tnfα), tumour necrosis factor receptor superfamily member 1a (Tnfrsf1a), chemokine (C-C motif) ligand 5 (Ccl5), chemokine (C-X-C motif) ligand 9 (Cxcl9), chemokine (C-X-C motif) ligand 10 (Cxcl10) and chemokine (C-C motif) receptor type 6 (Ccr6) (FIG. 2a). […] Only few of them were decreased in Abcd1^− mouse spinal cord: interleukin 6 ([…]), resistin like alpha (Retnla, also called Fizz1) and macrophage migration inhibitory factor (Mif) (FIG. 2a-b).

[2] = test system: Abcd1−/Abcd2−/− (DKO) mice spinal cord; test: Immunohistological analysis of axonal pathologies in Abcd1−/Abcd2−/− (DKO) mice spinal cord; conditions: 18 months of age, DMF 100 mg/kg in chow for 6 months
Description: as §1
To address the therapeutic effect of DMF, we assessed the clinical signs of AMN in Abcd1^−/Abcd2^−/− (DKO) mice, which display increased VLCFA accumulation in the spinal cord, higher levels of oxidative damage to proteins, and a more severe AMN-like pathology with an earlier onset at 12 months of age.
as §2
To evaluate the effect of DMF on axonal degeneration and locomotor impairment in X-ALD, Abcd1^−/Abcd2^−/− mice (DKO) were fed with chow including DMF (100 mg/kg).

[3] = Abcd1− mouse spinal cord, DMF 100 mg/kg/day in chow

Q: What does the source list for `COC(=O)/C=C/C(=O)OC` [DMF, dimethyl fumarate]?
A: bar cross test (number of slips and time to cross the bar) [1]: behaved similar to WT mice; treadmill test (number and duration of shocks) [1]: improved the performance of DKO mice in this test, up to the level of WT mice; oxidative damage to proteins and lipids (AASA, CEL, CML, MDAL) (Abcd1− mice spinal cord; Abcd1− mice spinal cord, DMF 100 mg/kg/day in chow for 4 months): prevents; Il1β and Chil3 mRNA (Abcd1− mice spinal cord; [3]): exacerbated the induction; Tnfrsf1a, Cxcl9 and Fizz1 mRNA (Abcd1− mice spinal cord; [3]): no effect; interleukin 10 (Il10) mRNA (Abcd1− mice spinal cord; [3]): upregulated; mRNA levels of Nfκb2, Il6, Tnfα, Ccl5, Cxcl10, Ccr6, Mif, Cxcl12, Tgfβ1, Igf1 (Abcd1− mice spinal cord; [3]): normalizing; accumulation of APP in axons ([2]; DKO mice spinal cord): prevented the accumulation; accumulation of synaptophysin in axons ([2]; DKO mice spinal cord): prevented the accumulation; astrocytosis (GFAP) ([2]; DKO mice spinal cord): reversed; microgliosis (Iba1) ([2]; DKO mice spinal cord): reversed; mitochondrial levels (CYT C staining in motor neurons) ([2]; DKO mice spinal cord): improved; motor neurons health (SMI-32 staining) ([2]; DKO mice spinal cord): improved; oxidative damage to DNA (8-oxo-dG staining) ([2]; DKO mice spinal cord): reduced; myelin debris along the spinal cord (Sudan black) ([2]; DKO mice): halted the appearance
